In patent US12599136B2, “Substituted isophthalic acid diamides and their use as herbicides” (Bayer Aktiengesellschaft, priority 2020, dated 2026):

Key:
Assay type in all cases: in vivo
Viola tricolor [1] = test: Pre-emergence herbicidal action against VIOTR
Excerpt: (§1) Seeds of monocotyledonous and dicotyledonous weed plants and crop plants are laid out in sandy loam soil in wood-fiber pots and covered with soil. The compounds of the invention, formulated in the form of wettable powders (WP) or as emulsion concentrates (EC), are then applied to the surface of the covering soil in the form of an aqueous suspension or emulsion at a water application rate equivalent to 600 to 800 l/ha, with addition of 0.2% wetting agent. After the treatment, the pots are placed in a greenhouse and kept under good growth conditions for the trial plants. The damage to the test plants is scored visually after a test period of 3 weeks by comparison with untreated controls (herbicidal activity in percent (%): 100% activity=the plants have died, 0% activity=like control plants). […] The tables below illustrate, in an illustrative manner, the post-emergence herbicidal action of the compounds of the invention, the herbicidal activity being stated in percent.

Matricaria inodora [2] = test: Post-emergence herbicidal action against MATIN; conditions: visual assessment about 3 weeks after treatment
Description: (§2) Seeds of monocotyledonous and dicotyledonous weed and crop plants are laid out in sandy loam soil in wood-fiber pots, covered with soil and cultivated in a greenhouse under good growth conditions. 2 to 3 weeks after sowing, the test plants are treated at the one-leaf stage. The compounds of the invention, formulated in the form of wettable powders (WP) or as emulsion concentrates (EC), are then sprayed onto the green parts of the plants in the form of an aqueous suspension or emulsion at a water application rate equivalent to 600 to 800 l/ha, with addition of 0.2% wetting agent. After the test plants have been left to stand in the greenhouse under optimal growth conditions for about 3 weeks, the action of the preparations is assessed visually in comparison to untreated controls (herbicidal action in percent (%): 100% activity=the plants have died, 0% activity=like control plants). […] The tables below illustrate, in an illustrative manner, the post-emergence herbicidal action of the compounds of the invention, the herbicidal activity being stated in percent.

Alopecurus myosuroides [3] = test: Pre-emergence herbicidal action against ALOMY; conditions: 80 g/ha; visual score after 3 weeks vs untreated controls
Excerpt: as §1

Veronica persica [4] = test: Pre-emergence herbicidal action against VERPE
Excerpt: as §1

Amaranthus retroflexus [5] = test: Pre-emergence herbicidal action against AMARE; conditions: visual score after 3 weeks vs untreated controls
Excerpt: as §1

Echinochloa crus-galli [6] = test: Pre-emergence herbicidal action against ECHCG; conditions: visual score after 3 weeks vs untreated controls
Excerpt: as §1

Alopecurus myosuroides [7] = test: Post-emergence herbicidal action against ALOMY; conditions: 20 g/ha
Description: as §2

Setaria viridis [8] = test: Pre-emergence herbicidal action against SETVI
Excerpt: as §1

Abutilon theophrasti [9] = test: Pre-emergence herbicidal action against ABUTH; conditions: visual score after 3 weeks vs untreated controls
Excerpt: as §1

Setaria viridis [10] = test: Post-emergence herbicidal action against SETVI; conditions: visual assessment about 3 weeks after treatment
Description: as §2

Echinochloa crus-galli [11] = test: Post-emergence herbicidal action against ECHCG; conditions: visual assessment about 3 weeks after treatment
Description: as §2

Digitaria sanguinalis = test: Pre-emergence herbicidal action against DIGSA
Excerpt: as §1

Matricaria inodora [12] = test: Pre-emergence herbicidal action against MATIN; conditions: visual score after 3 weeks vs untreated controls
Excerpt: as §1

Veronica persica [13] = test: Post-emergence herbicidal action against VERPE; conditions: 20 g/ha, visual assessment about 3 weeks after treatment
Description: as §2

Stellaria media [14] = test: Post-emergence herbicidal action against STEME; conditions: 80 g/ha, visual assessment about 3 weeks after treatment
Description: as §2

Abutilon theophrasti [15] = test: Post-emergence herbicidal action against ABUTH; conditions: 80 g/ha
Description: as §2

Stellaria media [16] = test: Pre-emergence herbicidal action against STEME; conditions: 320 g/ha
Excerpt: as §1

Amaranthus retroflexus [17] = test: Post-emergence herbicidal action against AMARE; conditions: 80 g/ha, visual assessment about 3 weeks after treatment
Description: as §2

Cyperus esculentus = test: Pre-emergence herbicidal action against CYPES; conditions: visual score after 3 weeks vs untreated controls
Excerpt: as §1

Viola tricolor [18] = test: Post-emergence herbicidal action against VIOTR
Description: as §2

Pharbitis purpurea = test: Post-emergence herbicidal action against PHBPU; conditions: 20 g/ha, visual assessment about 3 weeks after treatment
Description: as §2

Avena fatua = test: Post-emergence herbicidal action against AVEFA; conditions: 20 g/ha, visual assessment about 3 weeks after treatment
Description: as §2

SMILES | Pre-emergence action against VIOTR (Viola tricolor [1]; 20 g/ha) | Pre-emergence action against VIOTR (Viola tricolor [1]; 80 g/ha) | Post-emergence action against MATIN in % (Matricaria inodora [2]; 20 g/ha) | Pre-emergence action against ALOMY (Alopecurus myosuroides [3]) | Pre-emergence action against VERPE (Veronica persica [4]; 80 g/ha) | Pre-emergence action against AMARE (Amaranthus retroflexus [5]; 20 g/ha) | Pre-emergence action against AMARE (Amaranthus retroflexus [5]; 80 g/ha) | Post-emergence action against ALOMY (Alopecurus myosuroides [7]) | Pre-emergence action against SETVI (Setaria viridis [8]; 80 g/ha) | Pre-emergence action against ABUTH (Abutilon theophrasti [9]; 80 g/ha) | Post-emergence action against SETVI in % (Setaria viridis [10]; 20 g/ha) | Post-emergence action against ECHCG in % (Echinochloa crus-galli [11]; 20 g/ha) | Pre-emergence action against DIGSA (Digitaria sanguinalis; 20 g/ha) | Pre-emergence action against DIGSA (Digitaria sanguinalis; 80 g/ha) | Pre-emergence action against MATIN (Matricaria inodora [12]; 20 g/ha) | Pre-emergence action against MATIN (Matricaria inodora [12]; 80 g/ha) | Pre-emergence action against ABUTH (Abutilon theophrasti [9]; 20 g/ha) | Post-emergence action against PHBPU in % (Pharbitis purpurea) | other results
Cc1c(C(=O)Nc2nnnn2C)ccc(C(F)(F)F)c1C(=O)N(C)C1CC1 [Example 1-21] | 90% | 100% | 80% | 90% | 80% | 100% | 100% | 80% | 100% | 100% | 90% | 90% | 100% | 100% | 80% | 100% | – | – | Pre-emergence action against ECHCG (Echinochloa crus-galli [6]; 80 g/ha): 90%; Post-emergence action against VERPE in % (Veronica persica [13]): 80%
Cc1c(C(=O)Nc2nnnn2C)ccc(S(C)(=O)=O)c1C(=O)N(C)C [Example 1-395] | – | 80% | – | – | 100% | – | 100% | – | – | 90% | – | 100% | – | – | – | – | – | – | Post-emergence action against STEME in % (Stellaria media [14]): 100%; Pre-emergence action against VIOTR (Viola tricolor [1]; 320 g/ha): 100%; Pre-emergence action against VERPE (Veronica persica [4]; 20 g/ha): 90%; Pre-emergence action against VERPE (Veronica persica [4]; 320 g/ha): 100%; Post-emergence action against ABUTH (Abutilon theophrasti [15]): 100%; Pre-emergence action against AMARE (Amaranthus retroflexus [5]; 320 g/ha): 100%; Pre-emergence action against ECHCG (Echinochloa crus-galli [6]; 320 g/ha): 100%; Pre-emergence action against STEME (Stellaria media [16]): 100%; Post-emergence action against AMARE in % (Amaranthus retroflexus [17]): 80%; Pre-emergence action against SETVI (Setaria viridis [8]; 320 g/ha): 100%; Pre-emergence action against ABUTH (Abutilon theophrasti [9]; Dosage column 320 g/ha (heading prints 3200 g/ha)): 100%; Post-emergence action against SETVI in % (Setaria viridis [10]; 80 g/ha): 90%; Post-emergence action against ECHCG in % (Echinochloa crus-galli [11]; 80 g/ha): 100%; Pre-emergence action against CYPES (Cyperus esculentus; 80 g/ha): 100%; Pre-emergence action against CYPES (Cyperus esculentus; 320 g/ha): 100%; Pre-emergence action against MATIN (Matricaria inodora [12]; 320 g/ha): 100%; Post-emergence action against VIOTR in % (Viola tricolor [18]; 80 g/ha): 90%
CCOC(=O)[C@@H]1CCCN1C(=O)c1c(C(F)(F)F)ccc(C(=O)Nc2nnnn2C)c1C [Example 1-401] | – | – | 90% | – | – | 100% | 100% | – | 100% | 100% | – | – | 90% | 100% | – | 90% | 100% | 80% | –
CCN(CC)C(=O)c1c(C(F)(F)F)ccc(C(=O)Nc2nnnn2CC)c1C [Example 2-31] | 100% | 100% | 90% | 80% | 80% | 100% | 100% | 80% | 90% | 100% | 90% | 90% | 90% | 100% | 90% | 100% | 100% | 90% | Post-emergence action against MATIN in % (Matricaria inodora [2]; 5 g/ha): 80%; Post-emergence action against SETVI in % (Setaria viridis [10]; 5 g/ha): 80%; Post-emergence action against ECHCG in % (Echinochloa crus-galli [11]; 5 g/ha): 80%; Post-emergence action against AVEFA in % (Avena fatua): 80%; Post-emergence action against VIOTR in % (Viola tricolor [18]; 5 g/ha): 100%; Post-emergence action against VIOTR in % (Viola tricolor [18]; 20 g/ha): 100%
